Laboratory results as given in patent US11957713B2, “Compositions and methods for treating diseases and disorders of the central nervous system” (priority 2016, dated 2024).

Legend:
[1] = system: brain-resident μP; experiment: Intra-brain (ICV) administration of busulfan through a cannula in the lateral ventricles
[2] = system: microglia progenitors, CD45^+c-kit^+ cells; experiment: Pretreatment to induce microglia progenitor proliferation; type: in vivo, mice; details: single dose of busulfan 25 mg/kg or ten days oral CSF 1R inhibitor
Procedure: These NP formulations were injected ICV in the brain of wild type adult animals that were pretreated with i) a single dose of busulfan 25 mg/kg or ii) ten days of oral administered CSF 1R inhibitor ((Elmore et al., Neuron. […] Five days after NP injection, animals were analyzed for the occurrence of Etoposide-mediated killing of microglia cells and/or their progenitors, using busulfan standard treatment (4 doses of 25 mg/kg) as reference for brain microglia progenitor ablation.

[3] = system: bone marrow and brain clonogenic cells; experiment: Colony forming unit (CFU) output of bone marrow and brain cells after conditioning; type: in vivo, mice; details: busulfan conditioning, 14 days after plating
Procedure: FIG. 6A depicts an experimental scheme for HCT. CFUs were plated from bone marrow (BM) and brain of naïve (UT), BU-treated and irradiated (IRR) mice, as well as from mice previously transplanted with CD45.2 GFP-transduced HSPCs (BU-HCT). FIG. 6B is a graph depicting number of colonies (#CFC) obtained from the tissues of BU and IRR animals. FIG. 6C is a graph depicting number of colonies (#CFC) and of GFP^+ CFCs obtained from the tissues of BU-HCT animals. FIG. 6D is a graph depicting frequency of GFP^+ cells (and lineage differentiation for BM) retrieved by FACS analysis in BM and brain of secondary recipient mice receiving BM or brain cells or peripheral blood mononuclear cells from primary recipients; mice were sacrificed 4 months after transplant.
HSPCs have been identified within extramedullary tissues and thought to be transiently localized at those sites and able to proliferate locally giving rise to tissue-resident myeloid cells, preferentially dendritic cells. Clonogenic potential was referred to the presence of these cells also in the brain, however upon establishment of parabiotic pairs and differently from what observed in other extra-medullary tissues, chimerism between the two animals was not observed in the brain. […]

[4] = system: CD45^+ brain cells; experiment: γH2AX (flow cytometry, immunofluorescence) and annexin V in brain after systemic busulfan conditioning; type: in vivo, mice
Procedure: FIGS. 15A15-C depict identification of brain-resident putative μ progenitors by BU-susceptibility. […] Inset is a representative laser-scanning confocal microscope photomicrographs of co-immunostaining for γH2AX, neurons (NeuN), microglia (Ibal) or astrocytes (GFAP). Sca1e bar=[…]. Images were acquired at confocal microscope Radiance 2100 (Bio-Rad) 1×70 at magnification 20× and processed by the Soft Work 3.5.0; reconstruction was performed with Adobe Photoshop CS 8.0 software. Magnification 40× in the insets.
Previous studies have provided evidence for the existence of i) a functionally defined microglia precursor population located in the brain and susceptible to ablation upon administration of a busulfan-based conditioning and that may coincide with endogenous CNS-resident microglial progenitors (μP). Phosphorylated histone 2AX (γH2AX) is a sensitive and specific biomarker to track the cells targeted by busulfan in the brain. Thus, functional brain resident μP could be identified by taking advantage of busulfan and γH2AX, which is a pharmacodynamic marker of its cytotoxicity within these cells. γH2AX was investigated as a biomarker of busulfan cytotoxicity. In particular, the presence, distribution and cellular localization of γH2AX were studied by flow cytometry (FC) and immunofluorescence (IF) on brain slices from mice treated with systemic busulfan conditioning. […] By IF, γH2AX was hardly detectable in control mice, except for some γH2AX^+ foci found in few neuronal cells, mainly localized in the hippocampus (FIG. 16C top picture), where a correlation between physiological neuronal activity and H2AX phosphorylation has previously been shown. […] Similar experiments are on going in mice expressing reporter genes expressed by the promoter of markers of hematopoietic stem cell- and microglia-specific genes, such as Fgd5 or Cx3Cr1 in order to better track busulfan-susceptible cells.

CS(=O)(=O)OCCCCOS(C)(=O)=O [busulfan]
neurotoxicity and local inflammation ([1]; ICV administration of busulfan): extensive neurotoxicity and local inflammation
transplanted HSPC engraftment ([1]; ICV administration of busulfan, data not shown): nor able to favor transplanted HSPC engraftment
exposure of brain-resident μP to busulfan versus systemic drug administration ([1]; ICV administration, different busulfan formulations, data not shown): not able to guarantee exposure of brain-resident μP to busulfan levels comparable to those reached by systemic drug administration
proliferation of microglia progenitors / expansion of CD45^+c-kit^+ cells in brain [2]: induce the proliferation of microglia progenitors and/or expand CD45^+c-kit^+ cells in the brain
CFU output [3]: drastic reduction in the CFU output
early apoptosis by annexin V staining ([4]; CD45^+ brain cells, particularly CD11b^+ and c-kit^+, post-busulfan): early apoptosis is also detected
γH2AX signal by immunofluorescence on brain slices ([4]; busulfan-treated mice, lateral ventricles, SVZ, RMS): γH2AX^+ signal was increased in nuclei of cells lining the lateral ventricles
γH2AX signal by flow cytometry ([4]; busulfan-treated versus control untreated, live CD45^+ cells, 1 and 5 days from the last busulfan dose): increase of γH2AX signal
